According to ChEMBL document CHEMBL1143788, “Trifunctional norrisolide probes for the study of Golgi vesiculation” (2007):
Calls of active or inactive are those of the source. The calls are words filed in the database; no cut-off is given here.

How the values were obtained:
[1] = tested on: NRK; experiment: Effect on Golgi fragmentation in NRK cells at 30 uM for 60 mins; assay type: functional
[2] = tested on: NRK; experiment: Effect on Golgi fragmentation in NRK cells for 60 mins; assay type: functional, Rattus norvegicus

## COC(=O)c1ccc(N=[N+]=[N-])cc1OCCCNC(=O)CCCC[C@@H]1SC[C@@H]2NC(=O)N[C@@H]21
[1]; Rattus norvegicus
  Activity: inactive

## CC1(C)CCC[C@]2(C)[C@@H](OC(=O)c3ccc(N=[N+]=[N-])cc3OCCCNC(=O)CCCC[C@@H]3SC[C@@H]4NC(=O)N[C@@H]43)CC[C@@H]12
[1]
  Activity: 50%

## CC1(C)CCC[C@]2(C)[C@@H](OC(=O)c3ccc(OCCCNC(=O)CCCC[C@@H]4SC[C@@H]5NC(=O)N[C@@H]54)cc3OCC3CO3)CC[C@@H]12 (stereo not given in full)
[2]
  Activity: <10%

## CC1(C)CCC[C@]2(C)[C@@H](OC(=O)c3ccc(OCC4CO4)cc3OCC(=O)NCCOCCOCCNC(=O)CCCC[C@@H]3SC[C@@H]4NC(=O)N[C@@H]43)CC[C@@H]12 (stereo not given in full)
[2]; Rattus norvegicus
  Activity: Active

## CC1(C)CCC[C@]2(C)[C@@H](OC(=O)c3cc(I)c(OCC4CO4)cc3OCC3CO3)CC[C@@H]12 (stereo not given in full)
[2]
  Activity: >80%
